# Data reported in PubChem BioAssay AID1224911.
# Biological target: Serine/threonine-protein kinase PAK 2 (Homo sapiens) (UniProt Q13177)
# Assay: PubChem AID 1224911
# Conditions: Caliper in vitro kinase assay, phosphorylated PAK2
# Sequence of Serine/threonine-protein kinase PAK 2 (Homo sapiens) (Q13177 whole entry, looked up): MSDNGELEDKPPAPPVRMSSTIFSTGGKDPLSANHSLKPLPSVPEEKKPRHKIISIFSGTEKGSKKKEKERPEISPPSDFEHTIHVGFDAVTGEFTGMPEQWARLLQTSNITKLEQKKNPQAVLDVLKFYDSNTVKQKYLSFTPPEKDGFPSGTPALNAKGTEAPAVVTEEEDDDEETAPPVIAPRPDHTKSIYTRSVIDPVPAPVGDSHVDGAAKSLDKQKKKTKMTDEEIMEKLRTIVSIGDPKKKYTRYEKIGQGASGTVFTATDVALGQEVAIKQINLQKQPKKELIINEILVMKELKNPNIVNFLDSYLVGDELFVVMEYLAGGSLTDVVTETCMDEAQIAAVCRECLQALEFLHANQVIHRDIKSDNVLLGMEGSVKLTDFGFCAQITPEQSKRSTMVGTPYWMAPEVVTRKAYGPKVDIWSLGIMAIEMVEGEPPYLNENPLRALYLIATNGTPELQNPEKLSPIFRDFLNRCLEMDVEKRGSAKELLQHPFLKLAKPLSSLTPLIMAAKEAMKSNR
structure (smiles),measurement,value
CC(C)NC(=O)N1CC[C@H](N=C2Nc3cc(F)ccc3N(CC(F)F)c3ccc(Cl)cc32)C1,IC50,0.72 µM
